Read-outs that look alike come from different tables or passages of the source.
Experiments:
SK-OV3 = assay: Inhibition of cells growth by colorimetric assay (SRB), SK-OV3; format: cell-based
Procedure, shortened: (§1)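 Seeding density 5×10^3 cells/well; attachment 18 h in drug-free medium; exposure 48 h, 10 to 10^−8 μg/ml. Fixation cold TCA 60 min at 4° C, SRB 10 min, absorbance 490 nm.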

physchem = details: pH 7.4, log D n-Octanol-Dulbecco's PBS pH 7.4
CYP3A4 = CYP3A4 (Homo sapiens, UniProt P08684); details: 30 min, 10 µM
Sequence of CYP3A4 (P08684 whole entry): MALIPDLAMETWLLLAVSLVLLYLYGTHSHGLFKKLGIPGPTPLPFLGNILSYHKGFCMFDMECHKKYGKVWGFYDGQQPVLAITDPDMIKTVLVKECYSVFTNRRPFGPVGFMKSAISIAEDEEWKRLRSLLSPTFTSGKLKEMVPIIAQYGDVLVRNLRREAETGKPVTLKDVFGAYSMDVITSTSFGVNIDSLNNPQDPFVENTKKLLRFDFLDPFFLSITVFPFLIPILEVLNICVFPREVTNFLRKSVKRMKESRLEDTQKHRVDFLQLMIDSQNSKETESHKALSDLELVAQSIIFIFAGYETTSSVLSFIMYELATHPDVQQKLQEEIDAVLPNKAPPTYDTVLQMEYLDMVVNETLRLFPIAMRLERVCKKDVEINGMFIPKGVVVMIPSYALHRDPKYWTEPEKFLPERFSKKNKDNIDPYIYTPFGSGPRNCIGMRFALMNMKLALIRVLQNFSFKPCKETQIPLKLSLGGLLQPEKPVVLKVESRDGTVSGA
Procedure: For CYP3A4 inhibition assay, the compound were tested at 10 μM in duplicate with a 0.25% final concentration of both methanol and acetonitrile in presence of the fluorescent substrate BFC (50 μM). The conversion of the BFC (7-benzyloxy-4-trifluoromethylcoumarin) in HFC (7-hydroxy-4-trifluoromethylcoumarin) was determined spectro-fluormetry after incubation with the enzyme during 30 min at 37° C.
For both assays, the fluorescent intensity measured at t=0 is subtracted from that measured after the appropriate incubation time. The ratio of signal-to-noise is calculated by comparing the fluorescence in incubations containing the test compound to the control samples containing the same solvent vehicle. The percent of control activity is calculated and reported as percent inhibition.

[1] = test system: FDC-P1, normal mouse myelogeous stem cells; details: 24 h
LOVO-DOX = assay: cells; format: cell-based; details: for GI50 / TGI: LOVO-DOX
Procedure, shortened: as §1

K562 = assay: cells; format: cell-based; details: for CC50: read-out: LC50
Procedure, shortened: as §1

IGROV = assay: cells; format: cell-based
Procedure, shortened: as §1

HT29 = assay: cells; format: cell-based
Procedure, shortened: as §1

IGROV-ET = assay: cells; format: cell-based; details: IGROV-ET; for CC50: read-out: LC50
Procedure, shortened: as §1

MEL-28 = assay: cells; format: cell-based; details: for CC50: read-out: LC50
Procedure, shortened: as §1

A549 = assay: cells; format: cell-based; details: for GI50: read-out: GI50
Procedure, shortened: as §1

SK-BR3 = assay: cells; format: cell-based; details: for CC50: read-out: LC50
Procedure, shortened: as §1

PANC-1 = assay: cells; format: cell-based; details: for CC50: read-out: LC50
Procedure, shortened: as §1

LNCAP = assay: cells; format: cell-based
Procedure, shortened: as §1

LOVO = assay: cells; format: cell-based; details: for CC50: read-out: LC50
Procedure, shortened: as §1

DU145 = assay: cells; format: cell-based; details: for CC50: read-out: LC50
Procedure, shortened: as §1

H-MEC-1 = assay: Inhibition of cells growth by colorimetric assay (SRB), H-MEC-1; format: cell-based; details: for CC50: Homo sapiens
Procedure, shortened: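 Absorbance at 490 nm of sulphorhodamine B bound by TCA-fixed cells gives the growth readout after 48 h continuous exposure to test samples (10 to 10^−8 μg/ml). Cells were seeded at 5×10^3 per well in RPMI 1640/10% FBS and allowed 18 h to attach first.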

[2] = test system: NRK-52E, normal rat kidney cells; details: 24 h
[3] = test system: L8, normal rat skeletal muscle cells; details: 24 h
[4] = test system: AML-12, normal mouse liver cells; details: 24 h
[5] = s9, 60 min, 1 μM
[6] = test system: H9c2 (2-1), normal rat cardiac muscle cells; details: 24 h
(HEPG2) = details: human, 24 h, 30 μM
Procedure: The toxic potential of compounds was investigated in vitro using primary human hepatocytes (HEPG2). The compounds were tested at 30 μM in duplicate with a final DMSO concentration of 1%. After incubation during 24 h at 37° C. the cell viability was determined by the conversion of oxided alarmarBlue (resazurin) to reduced alarmarBlue (resorufin). Chlorpromazine was used as reference compound. Results are expressed as a percent of inhibition of control values.

CYP2D6 = CYP2D6 (Homo sapiens, UniProt P10635); assay: in vitro; details: CYP2D6 (% inhibition)
Sequence of CYP2D6 (P10635 whole entry): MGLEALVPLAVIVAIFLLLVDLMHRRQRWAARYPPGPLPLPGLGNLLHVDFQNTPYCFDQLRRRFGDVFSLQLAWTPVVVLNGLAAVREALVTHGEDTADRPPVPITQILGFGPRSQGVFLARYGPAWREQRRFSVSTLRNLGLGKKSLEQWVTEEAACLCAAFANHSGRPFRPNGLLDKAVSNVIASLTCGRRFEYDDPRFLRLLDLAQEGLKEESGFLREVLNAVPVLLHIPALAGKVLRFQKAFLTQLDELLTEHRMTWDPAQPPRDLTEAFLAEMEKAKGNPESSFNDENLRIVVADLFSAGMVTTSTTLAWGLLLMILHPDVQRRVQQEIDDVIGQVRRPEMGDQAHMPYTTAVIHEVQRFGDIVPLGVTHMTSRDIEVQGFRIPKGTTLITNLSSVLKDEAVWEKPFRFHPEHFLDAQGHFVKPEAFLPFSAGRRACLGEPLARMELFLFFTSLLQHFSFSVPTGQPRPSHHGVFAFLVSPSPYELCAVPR

[7] = Homo sapiens, 48 h, 48 hours exposure, SRB
[8] = Homo sapiens, PANC-1, 48 h, PANC-1, 48 hours exposure, SRB
[9] = Homo sapiens, LNCaP, 48 h, 48 hours exposure, SRB
[10] = Homo sapiens, DU-145, 48 h, DU145, 48 hours exposure, SRB
[11] = H-MEC-1, 48 hours exposure, SRB

## COc1c(C)cc2c(c1O)[C@@H]1C3[C@@H]4SC[C@]5(NC(C)Cc6c5[nH]c5ccccc65)C(=O)COC[C@@H](c5c6c(c(C)c(OC(C)=O)c54)OCO6)N3[C@@H](O)[C@H](C2)N1C (some centres unmarked) [Compound 43]
other
  Solubility Dulbecco's PBS pH 7.4: 5.85 μM
SK-OV3; SK-OV3
  GI50: 3.39 nM
  TGI: 7.17E−09
SK-OV3; read-out: LC50, SK-OV3
  CC50: 13 nM
physchem
  logD at 60 min: > 4.5
CYP3A4
  CYP3A4 (% inhibition): 15 % inhibition
[1]
  Myelo: 6.23E−08
LOVO-DOX; Homo sapiens, read-out: LC50, LOVO-DOX
  CC50: 13000 nM
LOVO-DOX
  GI50: 39.8 nM
  TGI: 1.06E−07
K562; Homo sapiens, K562, K562
  GI50: 2.51 nM
K562; K562
  TGI: 4.88E−09
  CC50: 9.49 nM
IGROV
  TGI: 5.20E−09
IGROV; Homo sapiens
  GI50: 2.73 nM
IGROV; read-out: LC50
  CC50: 9.88 nM
HT29; HT29
  TGI: 1.04E−07
HT29; Homo sapiens, HT-29, HT29
  GI50: 46.4 nM
HT29; Homo sapiens, HT-29, read-out: LC50, HT29
  CC50: 13000 nM
IGROV-ET
  GI50: 9.1 nM
  TGI: 2.35E−08
  CC50: 13000 nM
MEL-28; MEL-28
  GI50: 308 nM
  TGI: 5.81E−07
  CC50: 1090 nM
A549; A549
  TGI: 1.08E−08
  GI50: 5.12 nM
A549; read-out: LC50, A549
  CC50: 32.8 nM
SK-BR3; SK-BR3
  GI50: 3.77 nM
  TGI: 8.65E−09
  CC50: 41.1 nM
PANC-1; PANC-1
  GI50: 5.28 nM
  TGI: 1.15E−08
  CC50: 39 nM
LNCAP; LNCAP
  GI50: 2.02 nM
  TGI: 3.76E−09
LNCAP; read-out: LC50, LNCAP
  CC50: 7 nM
LOVO; LOVO
  GI50: 3.5 nM
  TGI: 8.32E−09
  CC50: 38.9 nM
DU145; DU145
  TGI: 9.04E−09
  CC50: 13 nM
DU145; Homo sapiens, DU-145, DU145
  GI50: 4.76 nM
H-MEC-1; H-MEC-1
  GI50: 11.8 nM
  TGI: 1.77E−07
H-MEC-1; HMEC-1, read-out: LC50, H-MEC-1
  CC50: 13000 nM
[2]
  Kidney: 4.38E−08
[3]
  Skeletal: 1.60E−07
[4]
  Liver: 7.57E−08
[5]
  Human Liver S9 Metabolic Stability (% remaining): 3 % remaining
[6]
  Heart: 9.42E−08

## COc1c(C)cc2c(c1O)[C@@H]1C3[C@@H]4SC[C@]5(NC(C)Cc6c5[nH]c5ccc(F)cc65)C(=O)COC[C@@H](c5c6c(c(C)c(OC(C)=O)c54)OCO6)N3[C@@H](O)[C@H](C2)N1C (some centres unmarked) [Compound 41]
other
  Solubility Dulbecco's PBS pH 7.4: <1 est μM
SK-OV3; Homo sapiens, SK-OV-3, 48 h, SK-OV3, 48 hours exposure, SRB
  GI50: 3.85 nM
SK-OV3; Homo sapiens, SK-OV-3, 48 h, read-out: LC50, SK-OV3, 48 hours exposure, SRB
  CC50: 12700 nM
SK-OV3; SK-OV3, 48 hours exposure, SRB
  TGI: 9.82E−09 Molar
physchem
  logD at 60 min: > 4.5
CYP3A4
  CYP3A4 (% inhibition): 22 % inhibition
[1]
  Myelo: 1.39E−07
LOVO-DOX; [7]
  GI50: 30.5 nM
LOVO-DOX; Homo sapiens, 48 h, read-out: LC50, LOVO-DOX, 48 hours exposure, SRB
  CC50: 12700 nM
LOVO-DOX; 48 hours exposure, SRB
  TGI: 9.99E−08 Molar
K562; K562, 48 hours exposure, SRB
  GI50: 0.11 nM
  TGI: 2.19E−09 Molar
  CC50: 5.57 nM
IGROV; [7]
  GI50: 1.94 nM
  IC (TGI): 4.14 nM
IGROV; Homo sapiens, 48 h, read-out: LC50, IGROV, 48 hours exposure, SRB
  CC50: 8.86 nM
HT29; HT29, 48 hours exposure, SRB
  GI50: 5.66 nM
  TGI: 6.07E−08 Molar
HT29; Homo sapiens, HT-29, 48 h, read-out: LC50, HT29, 48 hours exposure, SRB
  CC50: 12700 nM
IGROV-ET; 48 hours exposure, SRB
  GI50: 3.14 nM
  TGI: 2.00E−08 Molar
  CC50: 3860 nM
MEL-28; MEL-28, 48 hours exposure, SRB
  GI50: 6.72 nM
  TGI: 2.66E−08 Molar
  CC50: 102 nM
A549; Homo sapiens, A549, 48 h, A549, 48 hours exposure, SRB
  GI50: 19.8 nM
A549; Homo sapiens, A549, 48 h, A549, 48 hours exposure, SRB, read-out: TGI
  IC (TGI): 46.8 nM
A549; Homo sapiens, A549, 48 h, read-out: LC50, A549, 48 hours exposure, SRB
  CC50: 110 nM
SK-BR3; SK-BR3, 48 hours exposure, SRB
  GI50: 2.33 nM
  TGI: 6.86E−09 Molar
  CC50: 36.3 nM
PANC-1; [8]
  GI50: 10.8 nM
  IC (TGI): 48.9 nM
PANC-1; PANC-1, 48 hours exposure, SRB
  CC50: 506 nM
LNCAP; [9]
  GI50: 2.62 nM
  IC (TGI): 5.17 nM
LNCAP; Homo sapiens, LNCaP, 48 h, read-out: LC50, LNCAP, 48 hours exposure, SRB
  CC50: 10.2 nM
LOVO; Homo sapiens, LoVo, 48 h, 48 hours exposure, SRB
  IC (TGI): 24.4 nM
LOVO; LOVO, 48 hours exposure, SRB
  GI50: 4.42 nM
  CC50: 410 nM
DU145; [10]
  GI50: 3.49 nM
  IC (TGI): 8.37 nM
DU145; DU145, 48 hours exposure, SRB
  CC50: 9900 nM
H-MEC-1; [11]
  GI50: 4.68 nM
  TGI: 4.08E−08 Molar
H-MEC-1; HMEC-1, 48 h, read-out: LC50, H-MEC-1, 48 hours exposure, SRB
  CC50: 12700 nM
[2]
  Kidney: 1.89E−08
(HEPG2)
  Cell Viability (% inhibition): 16 % inhibition
[3]
  Skeletal: 2.39E−07
[4]
  Liver: 6.30E−08
[5]
  Human Liver S9 Metabolic Stability (% remaining): 7 % remaining
[6]
  Heart: 3.49E−08
CYP2D6
  inhibition at 450 min, 10 µM: 16%

Source: patent US7763615B2, “Ecteinascidin analogs for use as antitumour agents” (priority 2001, dated 2010)
